Data published in US8492374B2, “Azaazulene compounds” (Industrial Technology Research Institute, priority 2009, dated 2013).

Experiments:
FLT-3 kinase = target: T1, FLT-3 kinase (Homo sapiens, UniProt P36888); assay: FLT-3 kinase DELFIA assay (HTScan FLT-3 Kinase Assay Kit); format: biochemical; details: 20 uM ATP; for inhibition at 0.1 µM: 0.1 uM compound; for inhibition at 1 µM: 1 uM compound
T1 construct: human FLT-3 (Arg571-Ser993); GST (N); purchased Cell Signaling Technology HTScan FLT-3 Kinase Assay Kit; host or cells: baculovirus expression system
T1 sequence (P36888 571-993): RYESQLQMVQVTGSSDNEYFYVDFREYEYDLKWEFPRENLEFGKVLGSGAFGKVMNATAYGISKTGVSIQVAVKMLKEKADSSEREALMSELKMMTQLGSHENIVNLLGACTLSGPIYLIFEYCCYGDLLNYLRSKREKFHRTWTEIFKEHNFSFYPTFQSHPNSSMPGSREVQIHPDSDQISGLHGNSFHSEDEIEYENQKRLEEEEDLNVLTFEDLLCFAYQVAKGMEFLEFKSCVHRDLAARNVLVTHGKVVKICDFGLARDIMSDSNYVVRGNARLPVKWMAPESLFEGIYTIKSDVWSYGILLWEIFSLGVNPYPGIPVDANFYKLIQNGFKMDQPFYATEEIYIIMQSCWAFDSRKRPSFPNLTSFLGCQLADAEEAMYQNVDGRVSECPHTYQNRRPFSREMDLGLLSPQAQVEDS
Experimental: Azaazulene Compounds of this invention were treated for their efficacy in inhibiting activities of FLT-3, c-KIT and KDR kinases by biochemical DELFIA (Dissociation Enhanced Lanthanide FIA) assays according to the procedure described below. The assays were conducted by, Division of Cell Engineering, Biomedical Engineering Research Laboratories, Industrial Technology Research Institute, Bldg. 53, 195, sec. 4, Chung Hsing Rd. Chutung, Hsinchu, Taiwan 310, R.O.C.
The FLT-3 assay was conducted following the protocol described in Protocol for HTScang FLT-3 Kinase Assay Kit (Cell Signaling Technology®).

[1] = test system: MV4-11 (FLT3-ITD) cell line; assay: In vitro cell activity assay (MTT cell viability, 72 hours); format: cell-based; details: Homo sapiens, 72 hours at 37° C., 10,000 cells per well, read-out: IC50 against MV4-11
Experimental: Human MV4-11 (FLT3-ITD) cell line was obtained from American Tissue Culture Collection (ATCC number: CRL-9591). The cell line was cultured with RPMI 1640 containing 10% fetal bovine serum, 1 mmol/L sodium pyruvate and 10 mmol/L HEPES (pH 7.4). The cell was grown and maintained in a humidified atmosphere at 37° C. and 5% carbon dioxide.
MV4-11 cell was plated in 96-well microtiter plates (10,000 cells per well) and serial dilutions of indicated compounds were added. At the end of the incubation period (72 hours at 37° C.), cell viability was determined by a tetrazolium dye, MTT (3-(4,5-dimethylthiazol-2-yl)-2,5-diphenyl tetrazolium bromide) (Promega, Madison, Wis.). The formazan crystals were dissolved by DMSO, and the absorbance at a wavelength of 600 nm was recorded using an ELISA plate reader. IC50 values were calculated using nonlinear regression and defined as the concentration needed for a 50% reduction in absorbance of treated versus untreated control cells.

O=c1[nH]c2cccccc-2c1-c1nc2cc(N3CCC(N4CCCC4)CC3)ccc2[nH]1 [Compound B104]
inhibition at 0.1 µM (FLT-3 kinase): 28.3%
inhibition at 1 µM (FLT-3 kinase): 84.1%
IC50 [1]: 69.1 nM

O=C(c1ccccc1)c1ccc2[nH]c(-c3c4cccccc-4[nH]c3=O)nc2c1 [Compound B114]
inhibition at 0.1 µM (FLT-3 kinase): 10%
inhibition at 1 µM (FLT-3 kinase): 16.3%
IC50 [1]: 1000 to 5000 nM

CN1CCCN(c2ccc3[nH]c(-c4c5cccccc-5[nH]c4=O)nc3c2)CC1 [Compound B77]
inhibition at 0.1 µM (FLT-3 kinase): 47.1%
inhibition at 1 µM (FLT-3 kinase): 94.3%
IC50 [1]: 39.2 nM

CC(C)(C)OC(=O)Nc1ccc2[nH]c(-c3c4cccccc-4[nH]c3=O)nc2c1 [Compound B20]
inhibition at 0.1 µM (FLT-3 kinase): 16.7%
inhibition at 1 µM (FLT-3 kinase): 33.3%
IC50 [1]: 1000 to 5000 nM

O=c1[nH]c2cccccc-2c1-c1nc2cc(N3CCN(Cc4ccccn4)CC3)ccc2[nH]1 [Compound B49]
inhibition at 0.1 µM (FLT-3 kinase): 21.9%
inhibition at 1 µM (FLT-3 kinase): 72.2%
IC50 [1]: 249 nM

O=c1[nH]c2cccccc-2c1-c1nc2cc(N3CCN(C[C@@H](O)CO)CC3)ccc2[nH]1 [Compound B40]
inhibition at 0.1 µM (FLT-3 kinase): 38.2%
inhibition at 1 µM (FLT-3 kinase): 88.1%
IC50 [1]: 72.3 nM

CN1CCC(N2CCN(c3ccc4[nH]c(-c5c6cccccc-6[nH]c5=O)nc4c3)CC2)CC1 [Compound B35]
inhibition at 0.1 µM (FLT-3 kinase): 42%
inhibition at 1 µM (FLT-3 kinase): 86.7%
IC50 [1]: 159 nM

O=c1[nH]c2cccccc-2c1-c1nc2cc(N3CCN(CCF)CC3)ccc2[nH]1 [Compound B38]
inhibition at 0.1 µM (FLT-3 kinase): 21.8%
inhibition at 1 µM (FLT-3 kinase): 69.2%
IC50 [1]: 118 nM

CS(=O)(=O)N1CCCN(c2ccc3[nH]c(-c4c5cccccc-5[nH]c4=O)nc3c2)CC1 [Compound B90]
inhibition at 0.1 µM (FLT-3 kinase): 23%
inhibition at 1 µM (FLT-3 kinase): 59.2%
IC50 [1]: 504 nM

O=c1[nH]c2cccccc-2c1-c1nc2cc(N3CCN(c4ncccc4[N+](=O)[O-])CC3)ccc2[nH]1 [Compound B65]
inhibition at 0.1 µM (FLT-3 kinase): 16.3%
inhibition at 1 µM (FLT-3 kinase): 60.5%
IC50 [1]: 278 nM

O=c1[nH]c2cccccc-2c1-c1nc2cc(N3CCN(c4ccncc4)CC3)ccc2[nH]1 [Compound B60]
inhibition at 0.1 µM (FLT-3 kinase): 71.7%
inhibition at 1 µM (FLT-3 kinase): 99.1%
IC50 [1]: 5.9 nM

CN(C)S(=O)(=O)N1CCCN(c2ccc3[nH]c(-c4c5cccccc-5[nH]c4=O)nc3c2)CC1 [Compound B91]
inhibition at 0.1 µM (FLT-3 kinase): 14.3%
inhibition at 1 µM (FLT-3 kinase): 42.5%
IC50 [1]: 876 nM

O=C(Nc1cccc(C(F)(F)F)c1)Nc1ccc2[nH]c(-c3c4cccccc-4[nH]c3=O)nc2c1 [Compound B132]
inhibition at 0.1 µM (FLT-3 kinase): 47.5%
inhibition at 1 µM (FLT-3 kinase): 72.4%
IC50 [1]: 580 nM

O=C(c1ccc2[nH]c(-c3c4cccccc-4[nH]c3=O)nc2c1)N1CCN(c2ccncc2)CC1 [Compound B72]
inhibition at 0.1 µM (FLT-3 kinase): 36.8%
inhibition at 1 µM (FLT-3 kinase): 85.5%
IC50 [1]: 50 to 100 nM

O=c1[nH]c2cccccc-2c1-c1nc2cc(N3CCN(Cc4ccccc4)CC3)ccc2[nH]1 [Compound B44]
inhibition at 0.1 µM (FLT-3 kinase): 29%
inhibition at 1 µM (FLT-3 kinase): 79.1%
IC50 [1]: 190 nM

O=c1[nH]c2cccccc-2c1-c1nc2cc(N3CCCNCC3)ccc2[nH]1 [Compound B76]
inhibition at 0.1 µM (FLT-3 kinase): 50%
inhibition at 1 µM (FLT-3 kinase): 92.9%
IC50 [1]: 25.6 nM

O=c1[nH]c2cccccc-2c1-c1nc2cc(N3CCN(c4ncccn4)CC3)ccc2[nH]1 [Compound B68]
inhibition at 0.1 µM (FLT-3 kinase): 39.1%
inhibition at 1 µM (FLT-3 kinase): 80.7%
IC50 [1]: 234 nM

O=C(O)CCC(=O)N1CCCN(c2ccc3[nH]c(-c4c5cccccc-5[nH]c4=O)nc3c2)CC1 [Compound B89]
inhibition at 0.1 µM (FLT-3 kinase): 20%
inhibition at 1 µM (FLT-3 kinase): 56.7%
IC50 [1]: > 5000 nM

Nc1cc(N2CCN(c3ccc4[nH]c(-c5c6cccccc-6[nH]c5=O)nc4c3)CC2)ccn1 [Compound B62]
inhibition at 0.1 µM (FLT-3 kinase): 9.5%
inhibition at 1 µM (FLT-3 kinase): 13.7%
IC50 [1]: > 5000 nM

CN1CCN(c2c(F)cc3[nH]c(-c4c5cccccc-5[nH]c4=O)nc3c2F)CC1 [Compound B52]
inhibition at 0.1 µM (FLT-3 kinase): 20.3%
inhibition at 1 µM (FLT-3 kinase): 42.5%
IC50 [1]: 635 nM

CN1CCCN(C(=O)c2ccc3[nH]c(-c4c5cccccc-5[nH]c4=O)nc3c2)CC1 [Compound B74]
inhibition at 0.1 µM (FLT-3 kinase): 27.1%
inhibition at 1 µM (FLT-3 kinase): 64%
IC50 [1]: 163 nM

CN1CCN(S(=O)(=O)c2ccc3[nH]c(-c4c5cccccc-5[nH]c4=O)nc3c2)CC1 [Compound B112]
inhibition at 0.1 µM (FLT-3 kinase): 9.5%
inhibition at 1 µM (FLT-3 kinase): 21.3%
IC50 [1]: 1000 to 5000 nM

CN1CCCN(S(=O)(=O)c2ccc3[nH]c(-c4c5cccccc-5[nH]c4=O)nc3c2)CC1 [Compound B113]
inhibition at 0.1 µM (FLT-3 kinase): 14.8%
inhibition at 1 µM (FLT-3 kinase): 42%
IC50 [1]: 100 to 500 nM

CCN(CC)CCCCn1c2cccccc-2c(-c2nc3cc(N4CCN(C)CC4)ccc3[nH]2)c1=O [Compound B32]
inhibition at 0.1 µM (FLT-3 kinase): 8%
inhibition at 1 µM (FLT-3 kinase): 8.1%
IC50 [1]: 1000 to 5000 nM

NC(=O)C1CCN(c2ccc3[nH]c(-c4c5cccccc-5[nH]c4=O)nc3c2)CC1 [Compound B108]
inhibition at 0.1 µM (FLT-3 kinase): 16%
inhibition at 1 µM (FLT-3 kinase): 86.5%
IC50 [1]: 89.1 nM

O=c1[nH]c2cccccc-2c1-c1nc2cc(N3CCN(c4ncccc4Cl)CC3)ccc2[nH]1 [Compound B66]
inhibition at 0.1 µM (FLT-3 kinase): 20.3%
inhibition at 1 µM (FLT-3 kinase): 55.5%
IC50 [1]: 466 nM

CN1CCN(c2ccc3[nH]c(-c4c5cccccc-5[nH]c4=O)nc3c2F)CC1 [Compound B51]
inhibition at 0.1 µM (FLT-3 kinase): 20.6%
inhibition at 1 µM (FLT-3 kinase): 66.6%
IC50 [1]: 99.1 nM

O=C(Nc1ccc2[nH]c(-c3c4cccccc-4[nH]c3=O)nc2c1)Nc1cc(C(F)(F)F)ccc1F [Compound B119]
inhibition at 0.1 µM (FLT-3 kinase): 32%
inhibition at 1 µM (FLT-3 kinase): 44.6%
IC50 [1]: 100 to 500 nM

O=c1[nH]c2cccccc-2c1-c1nc2cc(N3CCNCC3)ccc2[nH]1 [Compound B22]
inhibition at 0.1 µM (FLT-3 kinase): 29.1%
inhibition at 1 µM (FLT-3 kinase): 83.9%
IC50 [1]: 42.9 nM

O=c1[nH]c2cccccc-2c1-c1nc2cc(N3CCN(c4c(F)cncc4F)CC3)ccc2[nH]1 [Compound B61]
inhibition at 0.1 µM (FLT-3 kinase): 17.7%
inhibition at 1 µM (FLT-3 kinase): 74.3%
IC50 [1]: 270 nM

O=c1[nH]c2cccccc-2c1-c1cn2ccc(Cl)cc2n1 [Compound B16]
inhibition at 0.1 µM (FLT-3 kinase): 4.8%
inhibition at 1 µM (FLT-3 kinase): 16.5%
IC50 [1]: > 5000 nM

O=CN1CCN(c2ccc3[nH]c(-c4c5cccccc-5[nH]c4=O)nc3c2)CC1 [Compound B54]
inhibition at 0.1 µM (FLT-3 kinase): 46%
inhibition at 1 µM (FLT-3 kinase): 91.6%
IC50 [1]: 74 nM

O=c1[nH]c2cccccc-2c1-c1nc2cc(N3CCOCC3)ccc2[nH]1 [Compound B111]
inhibition at 0.1 µM (FLT-3 kinase): 24.5%
inhibition at 1 µM (FLT-3 kinase): 75%
IC50 [1]: 169 nM

CN1CCN(c2cc3nc(-c4c5cccccc-5[nH]c4=O)[nH]c3cc2F)CC1 [Compound B50]
inhibition at 0.1 µM (FLT-3 kinase): 25.1%
inhibition at 1 µM (FLT-3 kinase): 79.6%
IC50 [1]: 50.7 nM

O=c1[nH]c2cccccc-2c1-c1nc2cc(N3CCN(S(=O)(=O)CCCl)CC3)ccc2[nH]1 [Compound B58]
inhibition at 0.1 µM (FLT-3 kinase): 35.7%
inhibition at 1 µM (FLT-3 kinase): 83.8%
IC50 [1]: 67.2 nM

O=Cc1ccc(N2CCN(c3ccc4[nH]c(-c5c6cccccc-6[nH]c5=O)nc4c3)CC2)o1 [Compound B59]
inhibition at 0.1 µM (FLT-3 kinase): 55.6%
inhibition at 1 µM (FLT-3 kinase): 96.1%
IC50 [1]: 146 nM

O=c1[nH]c2cccccc-2c1-c1cn2cc(Br)ccc2n1 [Compound B17]
inhibition at 0.1 µM (FLT-3 kinase): 4.9%
inhibition at 1 µM (FLT-3 kinase): 23.4%
IC50 [1]: 1000 to 5000 nM

CCCCN(CCCC)CCN1CCN(c2ccc3[nH]c(-c4c5cccccc-5[nH]c4=O)nc3c2)CC1 [Compound B34]
inhibition at 0.1 µM (FLT-3 kinase): 40.2%
inhibition at 1 µM (FLT-3 kinase): 85.4%
IC50 [1]: 151 nM

O=C(Nc1ccccc1)N1CCN(c2ccc3[nH]c(-c4c5cccccc-5[nH]c4=O)nc3c2)CC1 [Compound B55]
inhibition at 0.1 µM (FLT-3 kinase): 45.2%
inhibition at 1 µM (FLT-3 kinase): 93.2%
IC50 [1]: 93.8 nM

O=c1[nH]c2cccccc-2c1-c1nc2cc(N3CCN(CCCF)CC3)ccc2[nH]1 [Compound B39]
inhibition at 0.1 µM (FLT-3 kinase): 24.3%
inhibition at 1 µM (FLT-3 kinase): 78.6%
IC50 [1]: 62.2 nM

CN(C)CCCN1CCN(c2ccc3[nH]c(-c4c5cccccc-5[nH]c4=O)nc3c2)CC1 [Compound B33]
inhibition at 0.1 µM (FLT-3 kinase): 58.7%
inhibition at 1 µM (FLT-3 kinase): 96.6%
IC50 [1]: 54.2 nM

O=c1[nH]c2cccccc-2c1-c1nc2cc(N3CCN(CCO)CC3)ccc2[nH]1 [Compound B36]
inhibition at 0.1 µM (FLT-3 kinase): 24.8%
inhibition at 1 µM (FLT-3 kinase): 64%
IC50 [1]: 151 nM
